Measurements as given in patent US20240174728A1, “A USE OF A POLYPEPTIDE COMPOUND IN THE PREPARATION OF DRUGS FOR PREVENTING OR TREATING INFLAMMATORY BOWEL DISEASES AND RELATED INTESTINAL FIBROSIS” (Shenzhen Turier Biotech Co., Ltd., priority 2021, published 2024).
Starred links: 1 amine or outer side, 2 acyl side, 3 side chain; linkers in the order of their positions; H or OH if unused. Non-standard residues stand in square brackets, D forms with d. Groups on a side chain read outwards from the residue. Primed or numbered codes have the meaning given here. No end group written: not given here. *: point of attachment. C20 diacid = O=C(O)CCCCCCCCCCCCCCCCCCC(=O)*; Arachidoyl = CCCCCCCCCCCCCCCCCCCC(=O)*; γGlu = O=C(O)[C@H](CCC(=O)[*:2])N[*:1]; Iva = CC[C@](C)(N)C(=O)O; PEG2′ = not defined here; Aib = CC(C)(N)C(=O)O

Tests used:
[1] = system: DSS induced chronic intestinal fibrosis model of mouse; experiment: DSS induced chronic intestinal fibrosis model of mouse (Example 3, three cycles); assay type: in vivo, Balb/c mice; conditions: 2% DSS 5 days then water 2 weeks, 3 cycles, 120 μg/kg s.c. once/day, compared with model group; for blue staining area of colon tissues, area ratio of blue collagen fibers to colon tissue in Masson staining (FIG. 11B): #P≤0.05, ##P≤0.01; for content of serum IL-6 (FIG. 13) / content of serum MMP-8 (FIG. 13): serum at end of three cycles
From the text: (§1) After 7 days of adaptive feeding, 114 Balb/c mice of 6-8 weeks age (purchased from Guangdong Medical Laboratory Animal Center, with weight approx. 16-20 g) are subjected to the experiment. Then randomly put the mice into 19 groups, with 6 mice in each group. The groups are normal group, model group, 6-TG group and polypeptide compound groups 1-16.
In the whole process, the normal group is given normal drinking water and is given subcutaneous injection PBS once every day. The model group is first given 2% DSS for 5 days and then given normal drinking water for 2 weeks. This is 1 cycle. The cycle is done 3 times. Subcutaneous injection of PBS is given once every day. The 6-TG group is first given 2% DSS for 5 days and then given normal drinking water for 2 weeks. This is 1 cycle. The cycle is done 3 times. 2 mg/kg 6-TG is given by the means of gavage once every day. The polypeptide compound groups 1-16 are first given 2% DSS for 5 days and then given normal drinking water for 2 weeks. This is 1 cycle. The cycle is done 3 times. Subcutaneous injection of 120 μg/kg polypeptide compounds 1-16 is given once every day.
During the administration period, the polypeptide compound groups 3, 8, 11, 12, 13 and 14 and the normal group, model group and 6-TG group are randomly selected, and the body weight, feces consistency and feces OB of the mice are recorded every day. The GraphPad Prism 8.3.0 software is used to plot the data into a diagram.
After completion of the 3rd cycle, the mice are dissected. The serums and colon tissues of the mice are collected. The colon and cecum are removed together. The colon length is measured. The GraphPad Prism 8.3.0 software is used to plot the data into a diagram.
The serums of the mice from the randomly selected polypeptide compound groups 3, 8, 11, 12, 13 and 14 and the normal group and model group of the present invention are used for cytokine test.
(§2) The colons of the mice from the randomly selected polypeptide compound groups 3, 8, 11, 12, 13 and 14 and the normal group and model group in the present invention are taken. Approx. 5 mm of intestinal segment is taken from the distal end of each colon and is fixed in 10% formalin. The specimens are fixed, dehydrated, wrapped in paraffin and sliced (5 μm). Then tissue HE staining, Masson staining and Fibronectin protein immunohistochemical staining are completed.

[2] = system: DSS induced acute intestinal fibrosis model of mouse; experiment: DSS induced acute intestinal fibrosis model of mouse (Example 2); assay type: in vivo, Balb/c mice; conditions: 3% DSS Day 1-7, compared with model group; for content of serum IL-6 (FIG. 7) / content of serum MMP-12 (FIG. 7) / collagenous fiber of colon tissues, Masson stained slice (FIG. 4A) / colon Ly-6g+ cells (neutrophile granulocyte infiltration), immunohistochemical staining (FIG. 6) / colon mucous layer α-SMA protein expression, immunohistochemical staining (FIG. 5): 120 μg/kg s.c. once/day; for content of serum IL-6 (FIG. 7) / content of serum MMP-12 (FIG. 7): 9th day serum, ##P≤0.01; for colon tissue morphology, HE stained slice (FIG. 3) / blue staining area of colon tissues, area ratio of blue collagen fibers to colon tissue in Masson staining (FIG. 4B): polypeptide 120 μg/kg s.c. or 6-TG 2 mg/kg p.o. once/day; for blue staining area of colon tissues, area ratio of blue collagen fibers to colon tissue in Masson staining (FIG. 4B): #P≤0.05
From the text: The DSS in this example is purchased from MP Biomedicals (CAS No.: 9011-18-1), and the positive control compound 6-thioguanine (6-TG) is a compound based on prior art and is purchased from Shanghai Aladdin Biochemical Technology Co., Ltd. (CAS No.: 154-42-7).
as §1
Model the 19 groups of mice and administer the drug to them for 8 days. In the 8 days, the normal group is given normal drinking water and is given subcutaneous injection of PBS once every day. From Day 1 to Day 7, the model group drinks 3% DSS and is given subcutaneous injection of PBS once every day. On Day 8, 3% DSS is replaced with normal drinking water and subcutaneous injection of PBS is given once. From Day 1 to Day 7, the 6-TG group drinks 3% DSS and is given 2 mg/kg 6-TG by the means of gavage once every day. On Day 8, 3% DSS is replaced with normal drinking water and 2 mg/kg 6-TG is given by the means of gavage once. From Day 1 to Day 7, the polypeptide compound groups 1-16 drink 3% DSS and are given subcutaneous injection of 120 μg/kg polypeptide compounds 1-16 once every day. On Day 8, 3% DSS is replaced with normal drinking water and subcutaneous injection of 120 μg/kg polypeptide compounds 1-16 is given once.
In the drug administration period, the randomly selected polypeptide compound groups 3, 8, 11, 12, 13 and 14 and the normal group, model group and 6-TG group are used for testing, and the body weight, feces consistency and feces OB of the mice are recorded every day. The GraphPad Prism 8.3.0 software is used to plot the data into a diagram. Feces OB is measured by the benzidine method.
On the 9th day, all mice are killed. The serums and colon tissues of the mice are collected. The colon and cecum of the mice are removed together. The colon length is measured. The GraphPad Prism 8.3.0 software is used to plot the data into a diagram.
The serums of the mice from the randomly selected polypeptide compound groups 3, 8, 11, 12, 13 and 14 of the present invention and the normal group and model group are used for cytokine test.
as §2, with “normal group, model” for “normal”, “6-TG” for “model”, “Masson staining, α-SMA α-SMA protein immunohistochemical” for “Masson”, “Ly-6g” for “Fibronectin”

| Substance | collagenous fiber of colon tissues, Masson stained slice (FIG. 11A) [1] | colon mucous layer Fibronectin protein expression, immunohistochemical staining (FIG. 12) [1] | colon tissue morphology, HE stained slice (FIG. 10) [1] | blue staining area of colon tissues, area ratio of blue collagen fibers to colon tissue in Masson staining (FIG. 11B) [1] | content of serum IL-6 (FIG. 13) [1] | content of serum MMP-8 (FIG. 13) [1] | content of serum IL-6 (FIG. 7) [2] | content of serum MMP-12 (FIG. 7) [2] | collagenous fiber of colon tissues, Masson stained slice (FIG. 4A) [2] | colon Ly-6g+ cells (neutrophile granulocyte infiltration), immunohistochemical staining (FIG. 6) [2] | colon mucous layer α-SMA protein expression, immunohistochemical staining (FIG. 5) [2] | colon tissue morphology, HE stained slice (FIG. 3) [2] | blue staining area of colon tissues, area ratio of blue collagen fibers to colon tissue in Masson staining (FIG. 4B) [2] |
| --- | --- | --- | --- | --- | --- | --- | --- | --- | --- | --- | --- | --- | --- |
| His-Aib-Gln-Gly-Thr-Phe-Thr-Ser-Asp-Lys(PEG2-PEG2-CO(CH2)18CH3)-Ser-Lys-Tyr-Leu-Asp-Glu-Arg-Ala-Ala-Gln-Asp-Phe-Iva-Gln-Trp-Leu-Leu-Asp-Gly-Gly-Pro-Ser-Ser-Gly-Aib-Pro-Pro-Pro-Ser-NH2 (H[Aib]QGTFTSDK([PEG2′-PEG2′-Arachidoyl])SKYLDERAAQDF[Iva]QWLLDGGPSSG[Aib]PPPS-NH2; not fully specified; printed as His-Aib-Gln-Gly-Thr-Phe-Thr-Ser-Asp-Lys(PEG2-PEG2-CO(CH2)18CH3)-Ser-Lys-Tyr-Leu-Asp-Glu-Arg-Ala-Ala-Gln-Asp-Phe-Iva-Gln-Trp-Leu-Leu-Asp-Gly-Gly-Pro-Ser-Ser-Gly-Aib-Pro-Pro-Pro-Ser-NH2) [Compound 11] | noticeably decrease | clearly decreased | become intact | noticeably decrease | clearly decreases | clearly decreases | clearly decreases | clearly decreases | noticeably decrease | clearly decrease | clearly decreased | become intact | noticeably decrease |
| His-Aib-Gln-Gly-Thr-Phe-Thr-Ser-Asp-Lys(PEG2-PEG2-γGlu-CO(CH2)18CO2H)-Ser-Lys-Tyr-Leu-Asp-Glu-Arg-Ala-Ala-Gln-Asp-Phe-Iva-Gln-Trp-Leu-Leu-Asp-Gly-Gly-Pro-Ser-Ser-Gly-Aib-Pro-Pro-Pro-Ser-NH2 (H[Aib]QGTFTSDK([PEG2′-PEG2′-γGlu-C20 diacid])SKYLDERAAQDF[Iva]QWLLDGGPSSG[Aib]PPPS-NH2) [Compound 8] | noticeably decrease | clearly decreased | become intact | noticeably decrease | clearly decreases | clearly decreases | clearly decreases | clearly decreases | noticeably decrease | clearly decrease | clearly decreased | become intact | noticeably decrease |
